“And” between values parts separate entries of the source, which are not always exact repeats. Identical values can stand only once.
Columns and labels:
[1] = system: cytochrome P450-dependent 7-ethoxycoumarin O-deethylase (ECOD); test: CYP-catalyzed ethoxycoumarin O-desalkylation (ECOD) inhibition assay with rat liver microsomes; assay type: biochemical; conditions: rat hepatic microsomes; for ECOD activity: compound 0.08 mg/mL, activity relative to control (DMSO) = 100%
Description: (§1) Male Wistar rats ([…] weight) were obtained from Universidade da Zona Oeste (UEZO). The animals were kept under light- and temperature-controlled conditions and were provided with rodent laboratory chow and water ad libitum. The rats were euthanized prior to the preparation of cytosolic and microsomal fractions. The livers were removed, placed in ice-cold 0.1 M phosphate buffer (pH 7.4) and then homogenized. Fractions were prepared by differential centrifugation and protein content was determined by Peterson’s methods.
(§2) 5,4′-Dihydroxy-7,3′5′-trimethoxyisoflavone (9), 7,3′-di-O-methylorobol (10), piscigenin (11), and sequoiaflavone (15) were accurately weighed. Solutions were prepared at a concentration of 8 mg/mL using DMSO as a solvent. CYP1A and GST assays were used aliquots of 10 µL of solution.
Ethoxycoumarin O-desalkylation by rat liver microsomes was used as a probe to determine CYP1A activity. Ethoxycumarin (1 mM), NADPH (1 mM), magnesium chloride (10 mM) and rat liver microsomes (5.5 μg) were incubated in phosphate buffer (0.1 M), pH 7.8 (0.5 mL ﬁnal volume). Incubations were at 37 °C for 5 min. The reaction was terminated with trichloroacetic acid (TCA) 2.5% followed by centrifugation (1000 g, 10 min). Immediately before ﬂuorescence determination, 2 mL of glycine-NaOH buffer were added and fluorescence of cumarin was determined (excitation: 390 nm and emission 440 nm). CYP activity was calculated as amount of produced cumarin per minute per protein mg. Assays containing phytochemicals were compared with control with DMSO (dimethylsulfoxide).

[2] = system: glutathione S-transferase (GST); test: Glutathione S-transferase (GST) inhibition assay (CDNB conjugation) with rat hepatic cytosolic fraction; assay type: biochemical; conditions: for inhibition of GST activity: 0.08 mg/mL; for GST activity: compound 0.08 mg/mL, activity relative to control (DMSO), CDNB substrate
Description: as §1, §2
The conjugation of glutathione to 1-chloro-2,4,-dinitrobenzene (CDNB) was measured as a non-speciﬁc substrate for GST activity. To a quartz cuvette reduced cytosolic fraction (10 μg), CDNB (2 mM) and 100 mM potassium phosphate buffer (pH 6.1) were added in a ﬁnal volume of 1 mL. The cuvette was placed in a spectrophotometer and the reaction initiated by the addition of glutathione (5 mM). The increase in absorbance at 340 nm over a 3 min period was measured at room temperature. An extinction coefﬁcient of […] was used to determine activity from the initial slope of the reaction. GST activity was calculated as amount of produced conjugated per minute per protein mg. Assays containing phytochemicals were compared with control with DMSO (dimethylsulfoxide).

CYP1A1 = system: CYP1A1; parameters: method as in PMID 15661813; conditions: HepG2 cell; cited from earlier work
[3] = system: 7-ethoxycoumarin O-deethylase (ECOD); parameters: method as in PMID 9522437; conditions: liver microsomes from rats treated with 3-methylcholanthrene; cited from earlier work

Compound | ECOD activity [1] | inhibition of GST activity [2] | GST activity [2] | inhibition of ECOD activity ([1]; compared with control 100%, 0.08 mg/mL) | CYP1A1 EROD activity (CYP1A1) | effect on microsomal ECOD activity [3]
COc1cc(O)c2c(=O)c(-c3cc(OC)c(O)c(OC)c3)coc2c1 [Compound 9, 5,4′-dihydroxy-7,5′,3′-trimethoxyisoflavone] | 66.9 ±27.7% | ~75% | 25.3 ±5.3% | – | – | –
COc1cc(O)c2c(=O)c(-c3ccc(O)c(OC)c3)coc2c1 [Compound 10, 7,3′-di-O-methylorobol] | 77.8 ± 11.6% | not observed | – | – | – | –
COc1cc(-c2coc3cc(O)cc(O)c3c2=O)cc(OC)c1O [Compound 11, piscigenin] | 53.5 ± 12.4% | ~70% | 32.2 ±1.3% | – | – | –
COc1cc(O)c2c(=O)cc(-c3ccc(O)c(-c4c(O)cc(O)c5c(=O)cc(-c6ccc(O)cc6)oc45)c3)oc2c1 [Compound 15, sequoiaflavone] | 24.8% and 24.8 ± 1.2% | – | 77.4 ± 6.7% | 75% | – | –
COc1cc(OC)c2c(=O)cc(-c3ccccc3)oc2c1 [DMF, 5,7-Dimethoxyflavone] | – | – | – | – | virtually down to zero | –
(±)-catechin | – | – | – | – | – | no effect
